Data on four compounds can be found in patent US20130274705A1, “FEEDBACK-BASED DIURETIC OR NATRIURETIC MOLECULE ADMINISTRATION” (MEDTRONIC, INC., priority 2012, published 2013).

In assay [1] the test system is anesthetized, mechanically ventilated male dog. Put plainly: NICOM study: cardiac data in an anesthetized, mechanically ventilated dog. It counts as in vivo. Conditions: measured by NICOM monitor. The source says:
A noninvasive cardiac output monitoring (NICOM) monitor was utilized to measure cardiac data from an anesthetized, mechanically ventilated, 54 lb, 42 inch (nose to base of tail) male dog. FIGS. 20-24 depict the cardiac data measured by the NICOM monitor.
The gap in data at 11:20 indicates electrocautery interference when the chest of the dog was opened. FIG. 21 depicts the data in response to sequential fluid boluses. An approximate 20% increase in CO was detected reflecting changes in both SV and HR. […] FIG. 23 depicts the cardiodepressant effect of the ultra-short beta-blocker esmolol given after dobutamine and recalibration. […] FIG. 24 depicts the response to increasing blood pressure with phenylephrine followed by decreasing blood pressure with sodium nitroprusside (SNP). Prior to this intervention, the dog chest had been opened and commercially available flow monitors had been implanted on the pulmonary artery (PA). Baseline PA flow data, which was measured by the implantable monitors, was 2.7 L/min. The PA flow data measured by the NICOM monitor was 2.812 L/min.

A further assay concerns Dahl/SS rats. Briefly: Pharmacodynamic study of VD in Dahl/SS rats on 4% salt diet (blood pressure). It counts as in vivo, rat. The note with it: for blood pressure compared with 4% vehicle control group at week 3: week 3, p-value<0.05. Here is the method: The pharmacodynamic effects of VD were investigated in a rat model. Forty male Dahl/SS rats were shipped to the animal facilities at PhysioGenix, Inc. (Milwaukee, Wis.). The rats were maintained on a low-salt diet and allowed to acclimate. After acclimation, animals had baseline parameters collected while on the low-salt diet. Baseline tail-cuff blood pressures and echocardiograms were measured. Baseline urine was collected for analysis of protein and albumin. Animals were then randomly assigned to one of 4 groups (10 animals per group):
1. Vehicle Control; low-salt diet, n=10 2. Vehicle Control; 4% salt diet, n=10 3. Vessel dilator, 100 ng/kg/min, 4% salt diet, n=10 4. Vessel dilator, 300 ng/kg/min, 4% salt diet, n=10
Lyophilized VD peptide (Bachem) was reconstituted in a Tris buffer having the same composition as the Tris buffer used in Example 7. The vehicle control groups were infused with a citrate-mannitol-saline buffer (0.66 mg/mL citric acid, 6.43 mg/mL sodium citrate, 40 mg/mL mannitol, 9 mg/mL NaCl). The animals were on a Teklad 7034 (low-salt) diet or Dyets AIN-76A 4% salt diet, as indicated, throughout a 6 week course of the study and had free access to water.
Alzet® minipumps (Durect, Corp.) were surgically implanted on Days 1, 15, and 29 of the study to maintain continuous vehicle or drug dispensing at the desired dose for a total period of 6 weeks. Urine was collected at baseline, 2, 4 and 6 weeks after the initiation of the treatment to assess proteinuria and albuminuria. After six weeks of treatment, the animals were then euthanized.

The subject of assay [2] is canine model high-rate paced (HRP) to simulate HF. Briefly: Pharmacodynamic study of VD by continuous subcutaneous infusion in high-rate paced canine heart failure model. It counts as in vivo. The note with it: SQ infusion 100 ng/kg·min. Here is the method:
FIGS. 16 and 17 show the mean right atrial pressure and the mean pulmonary capillary wedge pressure, respectively, for control and experimental groups of a canine model high-rate paced (HRP). A pharmaceutical formulation of VD was prepared in a Tris buffer. 16.0 g glycerol, 6.05 g tris-(hydroxymethyl)-aminomethane (“Tris”), 2.50 g meta cresol were mixed in a 1.00 L volumetric flask. Approximately 900 mL nanopure water was added to the volumetric flask and the mixture was magnetically stirred to reach complete dissolution. 4 normal hydrochloric acid was used to adjust pH to 7.3 at 25° C. Then, the flask was filled to 1 L mark with nanopure water. The pH was rechecked and verified to be 7.3 at 25° C. The pH 7.3 Tris buffer was stored at 2-8° C. until use.
Lyophilized VD peptide (Bachem) was weighted into a glass vial and dissolved into a known volume of the Tris buffer to a concentration between 1 mg/mL and 10 mg/mL. The VD peptide was dissolved by gentle mixing and the solution was allowed to rest for between 20 and 30 minutes. The pH of the solution was checked and adjusted to 7.3 with 0.1 N sodium hydroxide. The solution was filtered through a 0.22 micron sterile filter into a sterile glass vial and stored at 2 to 8° C. until use.
The pharmacodynamic effects of VD delivered by subcutaneous infusion were investigated in a canine model high-rate paced (HRP) to a heart rate of 240 bpm (ventricular pacing) over a period of 10 days to simulate HF. The canines were divided into a control group and an experimental group. The control group received a continuous subcutaneous infusion of the Tris buffer without VD over the course of the 10 day period. The experimental group received continuous subcutaneous infusion of VD dissolved in Tris buffer at a dosing rate of 100 ng/kg·min based upon the body weight of individual canines.
Seven days prior to the beginning of HRP (Day −7), all dogs were instrumented for ventricular pacing with an IPG (implantable pulse generator) including an RA (right atrium) and RV (right ventricle) lead, and a DSI ([…]) device in the femoral artery for arterial blood pressure monitoring. Glomerular filtration rate (GFR) was measured by iohexol clearance on the day before the beginning of HRP (Day −1). On Day 0, high-rate pacing was initiated at a rate of 240 BPM (beats per minute) and maintained continuously over the course of a 10 day period (Days 0-10). After HRP was started on Day 0, urine, blood, and hemodynamic data was collected from conscious animals to serve as a baseline. […]

As for `CNC[C@H](O)c1cccc(O)c1` [Phenylephrine, phenylephrine], in assay [1], the “effect on cardiac output (CO)” value is on record as “reduced CO” and the “effect on heart rate (HR)” value is recorded as “reflex slowing of the HR”.
For the compound `CC(CCc1ccc(O)cc1)NCCc1ccc(O)c(O)c1` (centres unmarked) [dobutamine], the “effect on cardiac output (CO)” value in assay [1] is on record as “marked increase in CO”.
On the same count and under the same terms, with `COC(=O)CCc1ccc(OCC(O)CNC(C)C)cc1` (centres unmarked) [esmolol] the entry was “marked decline in CO”.
As to “vessel dilator (EVVPPQVLSEPNEEAGAALSPLPEVPPWTGEVSPAQR; Vessel dilator; UniProt P01160 56-92, looked up) [VD, Natriuretic peptide of the ANP hormones; lyophilized VD peptide (Bachem) dissolved in Tris buffer]”, the “blood pressure compared with vehicle control group on 4% salt diet” value in the assay with Dahl/SS rats (high-dose VD 300 ng/kg/min SQ infusion) and in the assay on Dahl/SS rats (low-dose VD 100 ng/kg/min SQ infusion) was “attenuated blood pressure” in each case. In addition, the “blood pressure compared with 4% vehicle control group at week 3” value in the assay on Dahl/SS rats (high-dose VD 300 ng/kg/min) and with Dahl/SS rats (low-dose VD 100 ng/kg/min) was “statistically significant decrease in blood pressure” throughout. Moreover, the “decrease in blood pressure compared with 4% vehicle control group at week 5” value with Dahl/SS rats (high-dose VD 300 ng/kg/min) and in the assay on Dahl/SS rats (low-dose VD 100 ng/kg/min) was “not as statistically significant” throughout. In addition, the “increase in right atrial pressure compared with control group” value in assay [2] (Day 10, p-value<0.05) is reported as “significantly less than for the control group”. Besides, the “change in mean right atrial pressure from Day 0 to Day 10” value in assay [2] (HRP 240 bpm, 10 days) was “increased slightly”. The “difference in pulmonary capillary wedge pressure between control and experimental group on Day 10” value in assay [2] (alpha 0.05, two-way repeated measures ANOVA) is “does not appear to be statistically significant”. Further, the “extent of increase in pulmonary capillary wedge pressure from Day 0 to Day 10” value in assay [2] (versus control group) is recorded as “smaller than that observed in the control group”.
